# From PubChem BioAssay AID212 (DTP/NCI, 2004)
# Several values for one entry are separate records, joined by “and”; a condition that tells them apart may be missing. Equal entries are not always repeated. Records with an inconclusive call do not appear.
# Tested on: BDF1 mice, colon carcinoma 38 sc, T/C %
# Test: NCI In Vivo Anticancer Drug Screen. Data for tumor model Colon Carcinoma 38 (subcutaneous) in B6D2F1 (BDF1) mice
# Details: endpoint: median tumor weight (est.), higher = larger tumour
# How it was run: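 Ratio of survival or tumor size, compound-treated animals relative to vehicle controls, in tumor-bearing mice.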
# [1] = dose: 25.0 mg/kg/injection, schedule: Q07DX002 (ip), vehicle: saline
# [2] = dose: 50.0 mg/kg/injection, schedule: Q07DX002 (ip), vehicle: saline
# [3] = dose: 100.0 mg/kg/injection, schedule: Q07DX002 (ip), vehicle: saline
# [4] = dose: 4.0 mg/kg/injection, schedule: Q07DX002 (ip), vehicle: saline
# [5] = dose: 8.0 mg/kg/injection, schedule: Q07DX002 (ip), vehicle: saline
# [6] = dose: 50.0 mg/kg/injection, schedule: Q07DX002 (ip), vehicle: saline with Tween-80
# [7] = dose: 100.0 mg/kg/injection, schedule: Q07DX002 (ip), vehicle: saline with Tween-80
# [8] = dose: 50.0 mg/kg/injection, schedule: Q07DX002 (ip), vehicle: Klucel (hydroxypropylcellulose) (HPC)
# [9] = dose: 100.0 mg/kg/injection, schedule: Q07DX002 (ip), vehicle: Klucel (hydroxypropylcellulose) (HPC)
# [10] = dose: 12.5 mg/kg/injection, schedule: Q07DX002 (ip), vehicle: saline with Tween-80
# [11] = dose: 25.0 mg/kg/injection, schedule: Q07DX002 (ip), vehicle: saline with Tween-80
# [12] = dose: 200.0 mg/kg/injection, schedule: Q07DX002 (ip), vehicle: saline with Tween-80
# [13] = dose: 800.0 mg/kg/injection, schedule: Q07DX002 (ip), vehicle: saline with Tween-80
# [14] = dose: 400.0 mg/kg/injection, schedule: Q07DX002 (ip), vehicle: saline with Tween-80
# [15] = dose: 25.0 mg/kg/injection, schedule: Q07DX002 (ip), vehicle: Klucel (hydroxypropylcellulose) (HPC)
smiles,measurement,setting,value
C[N+](C)(C)c1ncnc2nc[nH]c12,T/C,[1],83 % of control
same,T/C,[2],77 % of control and 98 % of control
same,T/C,[3],96 % of control and 100 % of control
same,T/C,"dose: 200.0 mg/kg/injection, schedule: Q07DX002 (ip), vehicle: saline",75 % of control and 85 % of control
CCN(Cc1ccc(Cl)c(Cl)c1)c1ccc2nc(N)nc(N)c2c1C,T/C,"dose: 6.25 mg/kg/injection, schedule: Q07DX002 (ip), vehicle: distilled water + Tween-80",165 % of control
same,T/C,"dose: 12.5 mg/kg/injection, schedule: Q07DX002 (ip), vehicle: distilled water + Tween-80",206 % of control
same,T/C,"dose: 100.0 mg/kg/injection, schedule: Q07DX002 (ip), vehicle: distilled water + Tween-80",46 % of control
C=C1C(C2(C)C(OC(C)=O)CC(=O)OC(C)(COC(C)=O)C2CC(=O)OC)C(OC=O)C(OC(=O)C(O)C(C)CC)C2(C)C(c3ccoc3)CC(=O)C12O (stereo unspecified),T/C,"dose: 3.0 mg/kg/injection, schedule: Q07DX002 (ip), vehicle: Klucel (hydroxypropylcellulose) (HPC)",64 % of control
same,T/C,"dose: 6.0 mg/kg/injection, schedule: Q07DX002 (ip), vehicle: Klucel (hydroxypropylcellulose) (HPC)",68 % of control
same,T/C,"dose: 12.0 mg/kg/injection, schedule: Q07DX002 (ip), vehicle: Klucel (hydroxypropylcellulose) (HPC)",77 % of control
same,T/C,"dose: 24.0 mg/kg/injection, schedule: Q07DX002 (ip), vehicle: Klucel (hydroxypropylcellulose) (HPC)",90 % of control
same,T/C,"dose: 48.0 mg/kg/injection, schedule: Q07DX002 (ip), vehicle: Klucel (hydroxypropylcellulose) (HPC)",61 % of control
CCCCNCCCNCCCNC(=O)c1csc(-c2csc(CCNC(=O)C(NC(=O)C(C)C(O)C(C)NC(=O)C(NC(=O)c3nc(C(CC(N)=O)NCC(N)C(N)=O)nc(N)c3C)C(OC3OC(CO)C(O)C(O)C3OC3OC(CO)C(O)C(OC(N)=O)C3O)c3cnc[nH]3)C(C)O)n2)n1 (stereo unspecified),T/C,"dose: 3.75 mg/kg/injection, schedule: Q07DX002 (ip), vehicle: water",81 % of control
same,T/C,"dose: 7.5 mg/kg/injection, schedule: Q07DX002 (ip), vehicle: water",61 % of control
same,T/C,"dose: 15.0 mg/kg/injection, schedule: Q07DX002 (ip), vehicle: water",56 % of control
same,T/C,"dose: 30.0 mg/kg/injection, schedule: Q07DX002 (ip), vehicle: water",48 % of control
CSc1ncnc2c1ncn2C1OC(CO)C(O)C1O (stereo unspecified),T/C,"dose: 6.25 mg/kg/injection, schedule: Q07DX002 (ip), vehicle: saline + alcohol",91 % of control
same,T/C,"dose: 12.5 mg/kg/injection, schedule: Q07DX002 (ip), vehicle: saline + alcohol",83 % of control
same,T/C,"dose: 25.0 mg/kg/injection, schedule: Q07DX002 (ip), vehicle: saline + alcohol",150 % of control
same,T/C,"dose: 100.0 mg/kg/injection, schedule: Q07DX002 (ip), vehicle: saline + alcohol",25 % of control
O=C(NP(=O)(N1CC1)N1CC1)c1cc(I)ccc1I,T/C,"dose: 8.0 mg/kg/injection, schedule: Q07DX002 (ip), vehicle: Klucel (hydroxypropylcellulose) (HPC)",105 % of control
same,T/C,"dose: 16.0 mg/kg/injection, schedule: Q07DX002 (ip), vehicle: Klucel (hydroxypropylcellulose) (HPC)",47 % of control
same,T/C,"dose: 32.0 mg/kg/injection, schedule: Q07DX002 (ip), vehicle: Klucel (hydroxypropylcellulose) (HPC)",92 % of control
same,T/C,"dose: 64.0 mg/kg/injection, schedule: Q07DX002 (ip), vehicle: Klucel (hydroxypropylcellulose) (HPC)",55 % of control
same,T/C,"dose: 128.0 mg/kg/injection, schedule: Q07DX002 (ip), vehicle: Klucel (hydroxypropylcellulose) (HPC)",22 % of control
same,T/C,"dose: 256.0 mg/kg/injection, schedule: Q07DX002 (ip), vehicle: Klucel (hydroxypropylcellulose) (HPC)",31 % of control
CC(=O)C(O)N1C(=O)C=CC1=O (stereo unspecified),T/C,"dose: 0.62 mg/kg/injection, schedule: Q07DX003 (ip), vehicle: saline",109 % of control
same,T/C,"dose: 1.25 mg/kg/injection, schedule: Q07DX003 (ip), vehicle: saline",76 % of control
same,T/C,"dose: 2.5 mg/kg/injection, schedule: Q07DX003 (ip), vehicle: saline",111 % of control
same,T/C,"dose: 5.0 mg/kg/injection, schedule: Q07DX003 (ip), vehicle: saline",108 % of control
Cc1c(N)nc(C(CC(N)=O)NCC(N)C(N)=O)nc1C(=O)NC(C(=O)NC(C)C(O)CC(=O)NC(C(=O)NC(OC1OC(C)C(N)C(O)C1O)C(O)c1nc(-c2nc(C(=O)NCCCC(N)CC(=O)NCCCNCCCCN)cs2)cs1)C(C)O)C(OC1OC(CO)C(O)C(O)C1OC1OC(CO)C(O)C(OC(N)=O)C1O)c1cnc[nH]1 (stereo unspecified),T/C,"dose: 2.0 mg/kg/injection, schedule: Q07DX002 (ip), vehicle: saline",56 % of control
same,T/C,[4],43 % of control
same,T/C,[5],25 % of control
same,T/C,"dose: 16.0 mg/kg/injection, schedule: Q07DX002 (ip), vehicle: saline",19 % of control
same,T/C,"dose: 32.0 mg/kg/injection, schedule: Q07DX002 (ip), vehicle: saline",6 % of control
C[Si](C)(C)O/C=C1\CCCCC1=O,T/C,[6],73 % of control and 91 % of control
same,T/C,[7],79 % of control and 100 % of control
CCCC[C@H]1C(=O)O[C@H](C)[C@H](NC(=O)c2cccc(NC=O)c2O)C(=O)O[C@@H](C)[C@@H]1OC(=O)CC(C)C,T/C,"dose: 0.5 mg/kg/injection, schedule: Q07DX002 (ip), vehicle: Klucel (hydroxypropylcellulose) (HPC)",177 % of control
same,T/C,"dose: 1.0 mg/kg/injection, schedule: Q07DX002 (ip), vehicle: Klucel (hydroxypropylcellulose) (HPC)",224 % of control
CCN(CC)CCOCc1cccc2c(=O)cc(-c3ccccc3)oc12,T/C,[8],66 % of control
same,T/C,[9],57 % of control
Clc1ccc(CN2COc3c(ccc4cccnc34)C2)cc1Cl,T/C,[10],180 % of control
same,T/C,[11],171 % of control
same,T/C,[6],110 % of control
same,T/C,[7],206 % of control
CC(C#N)(C#N)N=Nc1ccc(Cl)cc1Cl,T/C,[11],86 % of control and 101 % of control
same,T/C,[6],50 % of control and 69 % of control
same,T/C,[7],66 % of control and 73 % of control
same,T/C,[12],58 % of control and 64 % of control
same,T/C,[13],63 % of control and 78 % of control
CCCCCC(O)C1C(=O)OC(C)C(O)/C=C/C=C/C=C/C=C/C=C(\C)C(O)C(O)C(O)CC(O)CC(O)CC(O)CC(O)CC1O (stereo unspecified),T/C,"dose: 0.5 mg/kg/injection, schedule: Q07DX002 (ip), vehicle: saline",92 % of control
same,T/C,"dose: 1.0 mg/kg/injection, schedule: Q07DX002 (ip), vehicle: saline",118 % of control
same,T/C,[4],90 % of control
same,T/C,[5],95 % of control
O=C(O)C(O)C(O)C1[O][Sb][O]C1C(=O)O (stereo unspecified),T/C,"dose: 12.5 mg/kg/injection, schedule: Q07DX002 (ip), vehicle: saline",90 % of control
same,T/C,[1],35 % of control
same,T/C,[2],109 % of control
same,T/C,[3],85 % of control
CC1(C)CC1(Br)Br,T/C,[10],155 % of control
same,T/C,[11],110 % of control and 96 % of control
same,T/C,[6],150 % of control
same,T/C,[7],124 % of control and 106 % of control
same,T/C,[12],155 % of control
same,T/C,[14],107 % of control
COc1cc(C(C)(C)C)cc(OC)c1C(O)(c1c(OC)cc(C(C)(C)C)cc1OC)c1c(OC)cc(C(C)(C)C)cc1OC,T/C,[10],70 % of control and 77 % of control
same,T/C,[6],95 % of control and 102 % of control
same,T/C,[12],88 % of control
same,T/C,[14],62 % of control
[I][Hg][CH2]C1OCCOC1[CH2][Hg][I] (stereo unspecified),T/C,"dose: 1.56 mg/kg/injection, schedule: Q07DX002 (ip), vehicle: Klucel (hydroxypropylcellulose) (HPC)",93 % of control
same,T/C,"dose: 3.12 mg/kg/injection, schedule: Q07DX002 (ip), vehicle: Klucel (hydroxypropylcellulose) (HPC)",101 % of control
same,T/C,"dose: 6.25 mg/kg/injection, schedule: Q07DX002 (ip), vehicle: Klucel (hydroxypropylcellulose) (HPC)",92 % of control
same,T/C,"dose: 12.5 mg/kg/injection, schedule: Q07DX002 (ip), vehicle: Klucel (hydroxypropylcellulose) (HPC)",99 % of control and 106 % of control
same,T/C,[15],83 % of control and 91 % of control
C(C#CCN1CCOCC1)#CCN1CCOCC1,T/C,[15],80 % of control
same,T/C,[11],166 % of control
same,T/C,[8],60 % of control
same,T/C,[6],213 % of control
same,T/C,[9],65 % of control
same,T/C,[7],177 % of control
same,T/C,"dose: 200.0 mg/kg/injection, schedule: Q07DX002 (ip), vehicle: Klucel (hydroxypropylcellulose) (HPC)",49 % of control
same,T/C,[12],296 % of control
same,T/C,"dose: 400.0 mg/kg/injection, schedule: Q07DX002 (ip), vehicle: Klucel (hydroxypropylcellulose) (HPC)",94 % of control
same,T/C,[14],285 % of control
same,T/C,"dose: 800.0 mg/kg/injection, schedule: Q07DX002 (ip), vehicle: Klucel (hydroxypropylcellulose) (HPC)",60 % of control
same,T/C,[13],262 % of control
ClCCCN1CCCCC1CCl (stereo unspecified),T/C,"dose: 0.78 mg/kg/injection, schedule: Q07DX002 (ip), vehicle: saline",80 % of control and 86 % of control
